Measurements as given in patent US20140228312A1, “ANTIBIOTIC COMPOSITION AND ITS USES” (Agency for Science, Technology and Research, priority 2011, published 2014).

Legend:
[1] = test system: B. cereus; test: MIC assay, antibiotic with or without DSF-family molecules; type: cell-based, Bacillus cereus; details: for MIC of Gentamicin, Mean: gentamicin alone (MeOH control, no DSF-family molecule)
Experimental: (§1) Minimum inhibitory concentration (MIC) was determined according to the 2003 guidelines of Clinical and Laboratory Standards Institute (CLSI) using 96-well microtiter plates. The two-fold dilution series of antibacterial agents or antibiotics were prepared with distilled water, methanol, or dimethyl sulfoxide (DMSO). Overnight cultures of bacteria were inoculated at an OD600 of 0.025 in Luria-Bertani (LB) broth supplemented with the respective antibiotic in the absence or presence of DSF-family molecules (Table 1). One hundred microliters of inoculated culture were grown in each well at 37° C. with shaking at 150 rpm for 24 hours. MIC was defined as the lowest concentration of antibiotic in which bacterial growth in the well was not measureable by determination of the turbidity at 600 nm.

[2] = test system: P. aeruginosa strain PAO1; test: Bacterial growth analysis (Bioscreen-C); type: cell-based, Pseudomonas aeruginosa
Experimental: (§2) Overnight bacterial cultures grown in LB broth was inoculated in the same medium to an OD600 of 0.025; the medium was supplemented with a respective antibiotic and DSF-family signals were added in a final concentration of 50 μM or otherwise indicated. Three hundred microliters of inoculated culture were grown in each well at 37° C. in a low intensity shaking model using the Bioscreen-C Automated Growth Curves Analysis System (OY Growth Curves AB Ltd, Finland).
P. aeruginosa is a major source of opportunistic infections in both immunocompromised individuals and cystic fibrosis patients (Bodey et al., 1983; Richards et al., 2000). It appeared to be less responsive to DSF than other tested bacterial pathogen in our preliminary MIC assay. We therefore used the Bioscreen-C Automated Growth Curves Analysis System to determine the synergistic effect of DSF with antibiotics. Gentamicin and kanamycin were added to the culture of P. aeruginosa strain PAO1 at a final concentration of 2 nM and 0.2 μM, respectively, in the absence and presence of 50 μM DSF.

[3] = test system: B. cereus; test: Bacterial growth analysis (Bioscreen-C); type: cell-based, Bacillus cereus; details: final concentration of 50 μM, no antibiotic
Experimental: as §2

[4] = test system: M. smegmatis; test: MIC assay, antibiotic with or without DSF; type: cell-based, Mycobacterium smegmatis; details: DSF 50 μM
Experimental: as §1

[5] = test system: B. thuringiensis; test: MIC assay, antibiotic with or without DSF; type: cell-based, Bacillus thuringiensis; details: DSF 50 μM
Experimental: as §1

[6] = test system: S. aureus; test: MIC assay, antibiotic with or without DSF; type: cell-based, Staphylococcus aureus; details: DSF 50 μM
Experimental: as §1

[7] = test system: N. subflava; test: MIC assay, antibiotic with or without DSF; type: cell-based, Neisseria subflava; details: DSF 50 μM
Experimental: as §1

[8] = 50 μM DSF-family molecule vs MeOH control

CCCCCCCC/C=C\C(=O)O [Compound C11]
Fold Change of MIC of Kanamycin [1, 8]: 16
Fold Change of MIC of Rifampicin [1, 8]: 4
Fold change of MIC of Gentamicin [1, 8]: 16

NC[C@H]1O[C@H](O[C@H]2[C@H](O)[C@@H](O[C@H]3O[C@H](CO)[C@@H](O)[C@H](N)[C@H]3O)[C@H](N)C[C@@H]2N)[C@H](O)[C@@H](O)[C@@H]1O [Kanamycin, kanamycin, reference compound]
time of recovery of bacterial growth ([2]; kanamycin 0.2 μM alone): 22 hour post inoculation

CCCCC/C=C\C(=O)O [Compound C8]
Fold Change of MIC of Ampicillin [1, 8]: 0
Fold Change of MIC of Kanamycin [1, 8]: 2
Fold Change of MIC of Rifampicin [1, 8]: 2
Fold change of MIC of Gentamicin [1, 8]: 0

CCCCCCCCCCC/C=C/C(=O)O [Compound T14]
synergistic activity with kanamycin ([1]; 50 μM DSF-family molecule): strongest synergistic activity
Fold Change of MIC of Kanamycin [1, 8]: 64
Fold Change of MIC of Rifampicin [1, 8]: 1.3
Fold change of MIC of Gentamicin [1, 8]: 128

CCCCCCCC/C=C/C(=O)O [Compound T11]
Fold Change of MIC of Kanamycin [1, 8]: 8
Fold Change of MIC of Rifampicin [1, 8]: 2.6
Fold change of MIC of Gentamicin [1, 8]: 16

CCCCCCCCCC/C=C\C(=O)O [Compound C13]
Fold Change of MIC of Kanamycin ([1]; 5 μM C13 vs MeOH): 2
Fold change of MIC of Gentamicin ([1]; 5 μM C13 vs MeOH): 0
Fold Change of MIC of Kanamycin ([1]; 10 μM C13 vs MeOH): 2
Fold change of MIC of Gentamicin ([1]; 10 μM C13 vs MeOH): 2
Fold Change of MIC of Kanamycin ([1]; 20 μM C13 vs MeOH): 8
Fold change of MIC of Gentamicin ([1]; 20 μM C13 vs MeOH): 4
Fold Change of MIC of Kanamycin ([1]; 30 μM C13 vs MeOH): 8
Fold change of MIC of Gentamicin ([1]; 30 μM C13 vs MeOH): 8
Fold Change of MIC of Kanamycin ([1]; 40 μM C13 vs MeOH): 16
Fold change of MIC of Gentamicin ([1]; 40 μM C13 vs MeOH): 21.3
Fold Change of MIC of Kanamycin ([1]; 50 μM C13 vs MeOH): 16
Fold change of MIC of Gentamicin ([1]; 50 μM C13 vs MeOH): 32
Fold Change of MIC of Ampicillin [1, 8]: 0
Fold Change of MIC of Kanamycin [1, 8]: 16
Fold Change of MIC of Rifampicin [1, 8]: 2.6
Fold change of MIC of Gentamicin [1, 8]: 32
effect on bacterial growth rate [3]: did not affect the bacterial growth rate

CCCCCCCCCCCC/C=C\C(=O)O [Compound C15]
drug adjuvant with ampicillin ([1]; 50 μM DSF-family molecule): best drug adjuvant with ampicillin
Fold Change of MIC of Kanamycin [1, 8]: 32
Fold Change of MIC of Rifampicin [1, 8]: 4
Fold change of MIC of Gentamicin [1, 8]: 128

CCCCCCC/C=C/C(=O)O [Compound T10]
Fold Change of MIC of Ampicillin [1, 8]: 0
Fold Change of MIC of Kanamycin [1, 8]: 4
Fold Change of MIC of Rifampicin [1, 8]: 2
Fold change of MIC of Gentamicin [1, 8]: 2

CCCCCCCCC/C=C/C(=O)O [Compound T12]
Fold Change of MIC of Ampicillin [1, 8]: 0
Fold Change of MIC of Kanamycin [1, 8]: 16
Fold Change of MIC of Rifampicin [1, 8]: 1.3
Fold change of MIC of Gentamicin [1, 8]: 21.3

CCCCCCCCCCCC/C=C/C(=O)O [Compound T15]
Fold Change of MIC of Ampicillin [1, 8]: 0
Fold Change of MIC of Kanamycin [1, 8]: 2
Fold Change of MIC of Rifampicin [1, 8]: 2
Fold change of MIC of Gentamicin [1, 8]: 0

CCCCC/C=C/C(=O)O [Compound T8]
Fold Change of MIC of Ampicillin [1, 8]: 0
Fold Change of MIC of Kanamycin [1, 8]: 2
Fold Change of MIC of Rifampicin [1, 8]: 0
Fold change of MIC of Gentamicin [1, 8]: 0

CC(C)CCCCCCC/C=C\C(=O)O [DSF, cis 11-methyl-2-dodecenoic acid]
enhancement of susceptibility to gentamicin [4]: 50%
enhancement of susceptibility to kanamycin [4]: 25%
enhancement of susceptibility to trimethoprim [4]: 50%
Fold Change of MIC of Kanamycin ([1]; 5 μM DSF vs MeOH): 1.3
Fold change of MIC of Gentamicin ([1]; 5 μM DSF vs MeOH): 2
Fold Change of MIC of Kanamycin ([1]; 10 μM DSF vs MeOH): 2
Fold change of MIC of Gentamicin ([1]; 10 μM DSF vs MeOH): 2
Fold Change of MIC of Kanamycin ([1]; 20 μM DSF vs MeOH): 2
Fold change of MIC of Gentamicin ([1]; 20 μM DSF vs MeOH): 5.3
Fold Change of MIC of Kanamycin ([1]; 30 μM DSF vs MeOH): 5.3
Fold change of MIC of Gentamicin ([1]; 30 μM DSF vs MeOH): 8
Fold Change of MIC of Kanamycin ([1]; 40 μM DSF vs MeOH): 5.3
Fold change of MIC of Gentamicin ([1]; 40 μM DSF vs MeOH): 16
Fold Change of MIC of Kanamycin ([1]; 50 μM DSF vs MeOH): 16
Fold change of MIC of Gentamicin ([1]; 50 μM DSF vs MeOH): 16
Fold Change of MIC of Ampicillin [1, 8]: 0
Fold Change of MIC of Kanamycin [1, 8]: 16
Fold Change of MIC of Rifampicin [1, 8]: 2
Fold change of MIC of Gentamicin [1, 8]: 16
decrease of MIC of ampicillin [5]: 75%
decrease of MIC of gentamicin [5]: 93.75%
decrease of MIC of kanamycin [5]: 93.75%
decrease of MIC of rifampicin [5]: 75%
effect on bacterial growth rate [3]: did not affect the bacterial growth rate
reduction of MIC of ampicillin [6]: 50%
reduction of MIC of gentamicin [6]: 50%
reduction of MIC of kanamycin [6]: 50%
effect on MIC of ampicillin [7]: did not affect
effect on MIC of rifampicin [7]: did not affect
reduction of MIC of gentamicin [7]: about 50%
reduction of MIC of kanamycin [7]: about 50%
effect on susceptibility to gentamicin ([2]; 50 μM DSF + gentamicin 2 nM): enhanced the susceptibility
delay of bacterial growth ([2]; 50 μM DSF + gentamicin 2 nM vs gentamicin alone): 6 h
effect on susceptibility to kanamycin ([2]; 50 μM DSF + kanamycin 0.2 μM): enhanced the susceptibility
delay of bacterial growth ([2]; 50 μM DSF + kanamycin 0.2 μM vs kanamycin alone): 8 h
effect on growth rate ([2]; 50 μM DSF, no antibiotic): did not affect the growth rate

CCCCCCCCCCC/C=C\C(=O)O [Compound C14]
Fold Change of MIC of Ampicillin [1, 8]: 0
Fold Change of MIC of Kanamycin [1, 8]: 32
Fold Change of MIC of Rifampicin [1, 8]: 2
Fold change of MIC of Gentamicin [1, 8]: 32

CCCCCCCCCC/C=C/C(=O)O [Compound T13]
Fold Change of MIC of Ampicillin [1, 8]: 0
Fold Change of MIC of Kanamycin [1, 8]: 5.3
Fold Change of MIC of Rifampicin [1, 8]: 2
Fold change of MIC of Gentamicin [1, 8]: 8

CCCCCCCCC/C=C\C(=O)O [Compound C12]
Fold Change of MIC of Ampicillin [1, 8]: 0
Fold Change of MIC of Kanamycin [1, 8]: 4
Fold Change of MIC of Rifampicin [1, 8]: 2.6
Fold change of MIC of Gentamicin [1, 8]: 8
effect on bacterial growth rate [3]: did not affect the bacterial growth rate

CCCCCCC/C=C\C(=O)O [Compound C10]
Fold Change of MIC of Ampicillin [1, 8]: 0
Fold Change of MIC of Kanamycin [1, 8]: 4
Fold Change of MIC of Rifampicin [1, 8]: 2.6
Fold change of MIC of Gentamicin [1, 8]: 2

gentamicin [reference compound]
MIC of Gentamicin, Mean [1]: 8 µg/mL
MIC of Gentamicin, Mean ([1]; listed as gentamicin): 8.0 µg/mL
time of recovery of bacterial growth ([2]; gentamicin 2 nM alone): 10 hour post inoculation

CCCCCCCCCCCC(=O)O [Compound S12]
Fold Change of MIC of Ampicillin [1, 8]: 0
Fold Change of MIC of Kanamycin [1, 8]: 8
Fold Change of MIC of Rifampicin [1, 8]: 2
Fold change of MIC of Gentamicin [1, 8]: 4
